The target of the assay is 5-HT2A receptors (Rattus norvegicus, UniProt P14842). Nature of the assay: in-vitro affinity to 5-HT2A receptors, displacement of [3H]ketanserine (Example A1). Type of assay: binding. An excerpt: The 5-HT2A receptors are exposed both to [^3H]ketanserine (a substance which is known for its affinity to the receptor) and also to the test compound. The decrease in the affinity of [^3H]ketanserine to the receptor is an indication of the affinity of the test substance to the 5-HT2A receptor.
Chain of 5-HT2A receptors (P14842 whole entry): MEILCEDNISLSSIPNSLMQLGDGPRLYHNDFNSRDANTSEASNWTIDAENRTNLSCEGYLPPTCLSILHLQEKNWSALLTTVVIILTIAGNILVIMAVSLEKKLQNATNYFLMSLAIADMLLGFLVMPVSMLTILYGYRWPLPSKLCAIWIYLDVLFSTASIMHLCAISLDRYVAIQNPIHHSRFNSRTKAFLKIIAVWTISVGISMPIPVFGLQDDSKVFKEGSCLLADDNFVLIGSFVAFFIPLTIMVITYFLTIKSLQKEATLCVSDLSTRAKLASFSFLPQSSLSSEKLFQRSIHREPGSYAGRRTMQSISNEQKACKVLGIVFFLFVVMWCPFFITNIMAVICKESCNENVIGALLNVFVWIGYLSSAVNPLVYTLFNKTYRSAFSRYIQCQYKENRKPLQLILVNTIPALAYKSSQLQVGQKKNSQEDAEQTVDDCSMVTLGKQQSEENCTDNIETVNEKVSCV

The mark [1] stands for this setting: target not given, description names affinity to 5-HT2A receptors, read-out: IC50.

Read-outs that look alike come from different tables or passages of the source.

Consider “1-(Biphenyl-4-yltrifluoromethyl-1H-pyrazol-4-ylmethyl)-4-methylpiperazine [Example 1026]”, for which the IC50 (in general, the concentration that inhibits the measured activity by half) (read-out: HT2A IC50) worked out at 260 nM.

Turning to “1-Biphenyl-4-yl-5-(2-fluorophenyl)-4-(2-methoxy-methylpyrrolidin-1-ylmethyl)-1H-pyrazole [(48)]”, the IC50 under setting [1] was determined as 510 nM.

For `OCc1cnn(-c2ccc(-c3ccccc3)cc2)c1-c1ccccc1F` [(21), [1-Biphenyl-4-yl-5-(2-fluorophenyl)-1H-pyrazol-4-yl]-methanol], the IC50 under setting [1] came out at 1200 nM.

Regarding `CC(=O)OCc1cnn(-c2ccc(-c3ccccc3)cc2)c1-c1ccccc1F` [(22), 1-Biphenyl-4-yl-5-(2-fluorophenyl)-1H-pyrazol-4-ylmethyl acetate], under setting [1], the IC50 stood at 1400 nM.

Turning to `Fc1ccccc1-c1c(CN2CCCCC2)cnn1-c1ccc(-c2ccccc2)cc1` [(23), 1-[1-Biphenyl-4-yl-5-(2-fluorophenyl)-1H-pyrazol-4-ylmethyl]-piperidine], the IC50 under setting [1] was 30 nM.

As to `Fc1ccccc1-c1c(CN2CCN(Cc3ccccc3)CC2)cnn1-c1ccc(-c2ccccc2)cc1` [(24), 1-Benzyl-4-[1-biphenyl-4-yl-5-(2-fluorophenyl)-1H-pyrazol-4-ylmethyl]piperazine], the IC50 under setting [1] stood at 170 nM.

In the case of `Fc1ccccc1-c1c(CN2CCC(N3CCOCC3)CC2)cnn1-c1ccc(-c2ccccc2)cc1` [(25), 4-{1-[1-Biphenyl-4-yl-5-(2-fluorophenyl)-1H-pyrazol-4-ylmethyl]piperidin-4-yl}morpholine], the IC50 under setting [1] came out at 560 nM.

On to `COCCCNCc1cnn(-c2ccc(-c3ccccc3)cc2)c1-c1ccccc1F` [(26), [1-Biphenyl-4-yl-5-(2-fluorophenyl)-1H-pyrazol-4-ylmethyl]-(3-methoxypropyl)amine], for which the IC50 under setting [1] is 34 nM.

With `Fc1ccccc1-c1c(CN2CCN3CCc4ccccc4C3C2)cnn1-c1ccc(-c2ccccc2)cc1` (centres unmarked) [(27), 2-[1-Biphenyl-4-yl-5-(2-fluorophenyl)-1H-pyrazol-4-ylmethyl]-1,3,4,6,7,11b-hexahydro-2H-pyrazino[2,1-a]-isoquinoline], the IC50 under setting [1] was 280 nM.

Take `Fc1ccccc1-c1c(CN2CCOCC2)cnn1-c1ccc(-c2ccccc2)cc1` [(28), 4-[1-Biphenyl-4-yl-5-(2-fluorophenyl)-1H-pyrazol-4-ylmethyl]-morpholine]: the IC50 under setting [1] turned out to be 1100 nM.

As for `O=C(O)CNCc1cnn(-c2ccc(-c3ccccc3)cc2)c1-c1ccccc1F` [(29), {[1-Biphenyl-4-yl-5-(2-fluorophenyl)-1H-pyrazol-4-ylmethyl]-amino}acetic acid], the IC50 under setting [1] worked out at 1700 nM.

As to `Fc1ccccc1-c1c(CN2CC=CC2)cnn1-c1ccc(-c2ccccc2)cc1` [(30), 1-Biphenyl-4-yl-4-(2,5-dihydropyrrol-1-ylmethyl)-5-(2-fluorophenyl)-1H-pyrazole], under setting [1], the IC50 was determined as 36 nM.

As for `Fc1ccccc1-c1c(CN2CCCCCC2)cnn1-c1ccc(-c2ccccc2)cc1` [(31), 1-[1-Biphenyl-4-yl-5-(2-fluorophenyl)-1H-pyrazol-4-ylmethyl]-azepan], the IC50 under setting [1] was 48 nM.

As to `CCN(Cc1ccccc1)Cc1cnn(-c2ccc(-c3ccccc3)cc2)c1-c1ccccc1F` [(32), Benzyl-[1-biphenyl-4-yl-5-(2-fluorophenyl)-1H-pyrazol-4-ylmethyl]ethylamine], the IC50 under setting [1] was found to be 320 nM.

For the compound `CCN(CC)Cc1cnn(-c2ccc(-c3ccccc3)cc2)c1-c1ccccc1F` [(33), [1-Biphenyl-4-yl-5-(2-fluorophenyl)-1H-pyrazol-4-ylmethyl]-diethylamine], the IC50 under setting [1] amounted to 55 nM.

With `CN(C)Cc1cnn(-c2ccc(-c3ccccc3)cc2)c1-c1ccccc1F` [(34), [1-Biphenyl-4-yl-5-(2-fluorophenyl)-1H-pyrazol-4-ylmethyl]-dimethylamine], the IC50 under setting [1] worked out at 21 nM.

For the compound `Fc1ccccc1-c1c(CN2CCCC2)cnn1-c1ccc(-c2ccccc2)cc1` [(35), 1-Biphenyl-4-yl-5-(2-fluorophenyl)-4-pyrrolidin-1-ylmethyl-1H-pyrazole], under setting [1], the IC50 amounted to 32 nM.

For the compound `Fc1ccccc1-c1c(CN2CCc3ccccc3C2)cnn1-c1ccc(-c2ccccc2)cc1` [(36), 2-[1-Biphenyl-4-yl-5-(2-fluorophenyl)-1H-pyrazol-4-ylmethyl]-1,2,3,4-tetrahydroisoquinoline], the concentration for half-maximal inhibition (IC50) under setting [1] was 70 nM.

Regarding `CN(C)C1CCN(Cc2cnn(-c3ccc(-c4ccccc4)cc3)c2-c2ccccc2F)CC1` [(37), {1-[1-Biphenyl-4-yl-5-(2-fluorophenyl)-1H-pyrazol-4-ylmethyl]-piperidin-4-yl}dimethylamine], the half-inhibitory concentration (IC50) under setting [1] came out at 200 nM.

Regarding `Fc1ccccc1-c1c(CN2CC=CCC2)cnn1-c1ccc(-c2ccccc2)cc1` [(38), 1-[1-Biphenyl-4-yl-5-(2-fluorophenyl)-1H-pyrazol-4-ylmethyl]-1,2,3,6-tetrahydropyridine], the IC50 under setting [1] was 170 nM.

On to `CN1CCC(N(C)Cc2cnn(-c3ccc(-c4ccccc4)cc3)c2-c2ccccc2F)CC1` [(39), [1-Biphenyl-4-yl-5-(2-fluorophenyl)-1H-pyrazol-4-ylmethyl]-methyl-(1-methylpiperidin-4-yl)amine], for which the IC50 under setting [1] is 160 nM.

As for `CN1CCN(NCc2cnn(-c3ccc(-c4ccccc4)cc3)c2-c2ccccc2F)CC1` [(40), [1-Biphenyl-4-yl-5-(2-fluorophenyl)-1H-pyrazol-4-ylmethyl]-(4-methylpiperazin-1-yl)amine], under setting [1], the IC50 came out at 14 nM.

On to `CN1CCN(Cc2cnn(-c3ccc(-c4ccccc4)cc3)c2-c2ccccc2F)CC1` [(41), 1-[1-Biphenyl-4-yl-5-(2-fluorophenyl)-1H-pyrazol-4-ylmethyl]-4-methylpiperazine], for which the IC50 under setting [1] came to 24 nM.

For the compound `Fc1ccccc1-c1c(CCN2CCOCC2)cnn1-c1ccc(-c2ccccc2)cc1` [(42), 4-{2-[1-Biphenyl-4-yl-5-(2-fluorophenyl)-1H-pyrazol-4-yl]ethyl}morpholine], the IC50 under setting [1] was determined as 12 nM.

As to `Fc1ccccc1-c1cc(CN2CCCCC2)nn1-c1ccc(-c2ccccc2)cc1` [(43), 1-[1-Biphenyl-4-yl-5-(2-fluorophenyl)-1H-pyrazol-3-ylmethyl]-piperidine], the IC50 under setting [1] is 120 nM.

As for `Fc1ccccc1-c1cc(CN2CCOCC2)nn1-c1ccc(-c2ccccc2)cc1` [(44), 4-[1-Biphenyl-4-yl-5-(2-fluorophenyl)-1H-pyrazol-3-ylmethyl]-morpholine], the concentration for half-maximal inhibition (IC50) under setting [1] was 1100 nM.

`CN1CCN(Cc2cc(-c3ccccc3F)n(-c3ccc(-c4ccccc4)cc3)n2)CC1` [(45), 1-[1-Biphenyl-4-yl-5-(2-fluorophenyl)-1H-pyrazol-3-ylmethyl]-4-methylpiperazine]: the IC50 under setting [1] was 300 nM.

With `Fc1ccccc1-c1c(C=CCN2CCOCC2)cnn1-c1ccc(-c2ccccc2)cc1` [(46), 4-{3-[1-Biphenyl-4-yl-5-(2-fluorophenyl)-1H-pyrazol-4-yl]allyl}morpholine], the IC50 under setting [1] was 17 nM.

Turning to `Fc1ccccc1-c1c(CCCN2CCOCC2)cnn1-c1ccc(-c2ccccc2)cc1` [(47), 4-{3-[1-Biphenyl-4-yl-5-(2-fluorophenyl)-1H-pyrazol-4-yl]propyl}morpholine], the IC50 under setting [1] was 23 nM.

Take `CC1CCN(Cc2cnn(-c3ccc(-c4ccccc4)cc3)c2-c2ccccc2F)CC1` [(49), 1-[1-Biphenyl-4-yl-5-(2-fluorophenyl)-1H-pyrazol-4-ylmethyl]-4-methylpiperidine]: the half-maximal inhibitory concentration (IC50) under setting [1] was found to be 130 nM.

On to `CC(=O)NC1CCN(Cc2cnn(-c3ccc(-c4ccccc4)cc3)c2-c2ccccc2F)C1` (centres unmarked) [(50), N-{1-[1-Biphenyl-4-yl-5-(2-fluorophenyl)-1H-pyrazol-4-ylmethyl]pyrrolidin-3-yl}acetamide], for which the IC50 under setting [1] stood at 29 nM.

As to `CCN(CC)CC1CCCCN1Cc1cnn(-c2ccc(-c3ccccc3)cc2)c1-c1ccccc1F` (centres unmarked) [(51), {1-[1-Biphenyl-4-yl-5-(2-fluorophenyl)-1H-pyrazol-4-ylmethyl]-piperidin-2-ylmethyl}diethylamine], under setting [1], the IC50 was found to be 270 nM.

Consider `CN1CCN(C(=O)c2cnn(-c3ccc(-c4ccccc4)cc3)c2-c2ccccc2F)CC1` [(52), 1-[1-Biphenyl-4-yl-5-(2-fluorophenyl)-1H-pyrazol-4-yl]-1-(4-methylpiperazin-1-yl)methanone], for which the IC50 under setting [1] was found to be 820 nM.

For the compound `OC1CCN(Cc2cnn(-c3ccc(-c4ccccc4)cc3)c2-c2ccccc2F)C1` (centres unmarked) [(53), 1-[1-Biphenyl-4-yl-5-(2-fluorophenyl)-1H-pyrazol-4-ylmethyl]-pyrrolidin-3-ol], under setting [1], the IC50 was 14 nM.

With `CC(C)(C)OC(=O)N1CCN(Cc2cnn(-c3ccc(-c4ccccc4)cc3)c2-c2ccccc2F)CC1` [(54), tert-Butyl 4-[1-Biphenyl-4-yl-5-(2-fluorophenyl)-1H-pyrazol-4-ylmethyl]piperazine-1-carboxylate], under setting [1], the IC50 worked out at 82 nM.

Consider `Fc1ccccc1-c1c(CN2CCNCC2)cnn1-c1ccc(-c2ccccc2)cc1` [(55), 1-[1-Biphenyl-4-yl-5-(2-fluorophenyl)-1H-pyrazol-4-ylmethyl]-piperazine], for which the IC50 under setting [1] was determined as 26 nM.

Turning to `Fc1ccccc1-c1c(CN2CCNCC2)cnn1-c1ccc(-c2ccccc2)nc1` [(56), 1-[5-(2-Fluorophenyl)-1-(6-phenylpyridin-3-yl)-1H-pyrazol-4-ylmethyl]piperazine], the IC50 under setting [1] turned out to be 150 nM.

Regarding `CN1CCN(Cc2cnn(-c3ccc(-c4ccccc4)nc3)c2-c2ccccc2F)CC1` [(57), 1-[5-(2-Fluorophenyl)-1-(6-phenylpyridin-3-yl)-1H-pyrazol-4-ylmethyl]-4-methylpiperazine], under setting [1], the IC50 was 220 nM.

Turning to `CN1CCN(Cc2cnn(-c3ccc(-c4ccccc4)cc3)c2-c2ccccn2)CC1` [(58), 1-(1-Biphenyl-4-yl-5-pyridin-2-yl-1H-pyrazol-4-ylmethyl)-4-methylpiperazine], the IC50 under setting [1] worked out at 50 nM.

As for `CC(C)(C)OC(=O)N1CCN(Cc2cnn(-c3ccc(-c4ccccc4)cc3)c2-c2ccccn2)CC1` [(59), tert-Butyl 4-(1-biphenyl-4-yl-5-pyridin-2-yl-1H-pyrazol-4-ylmethyl)piperazine-1-carboxylate], the IC50 under setting [1] stood at 780 nM.

Take `c1ccc(-c2ccc(-n3ncc(CN4CCNCC4)c3-c3ccccn3)cc2)cc1` [(60), 1-(1-Biphenyl-4-yl-5-pyridin-2-yl-1H-pyrazol-4-ylmethyl)-piperazine]: under setting [1], the IC50 is 200 nM.

Values taken from patent US20060264419A1 (priority 2003, published 2006).
